Key:
Assay in all cases: relative viability (nuclei count vs DMSO), 5 days (fraction); higher = more cells survive
[1] = test system: NCI-H596
Summary of the method: (§1)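 Lung cancer cell lines, seeded in 1536-well plates, were treated the following day by pin tool with a single drug or with five library-drug doses (not always all listed) in √10 steps on top of a fixed anchor-drug dose. Cells were fixed and nuclei stained in one step after 5 days, and nuclei were counted. Relative viability is the nuclei count for treated wells divided by that for vehicle wells, reported as medians of duplicate plates.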

[2] = test system: NCI-H1666
Summary of the method: as §1

[3] = test system: NCI-H661
Summary of the method: as §1

[4] = test system: NCI-H1944
Summary of the method: as §1

[5] = test system: IA-LM
Summary of the method: as §1

[6] = test system: SK-LU-1
Summary of the method: as §1

[7] = test system: PC-14
Summary of the method: as §1

[8] = test system: NCI-H1648
Summary of the method: as §1

[9] = test system: NCI-H1703
Summary of the method: as §1

[10] = test system: A549
Summary of the method: as §1

Cc1csc(=NC2CCCCC2)n1/N=C/c1ccc(O)c(O)c1O [MIM1] + O=C(CCCCCCC(=O)Nc1ccccc1)NO [Vorinostat] (partner 1 µM)
relative viability ([1]; first compound 0.2 µM): 0.719
relative viability ([1]; first compound 0.6325 µM): 0.722
relative viability ([1]; first compound 2 µM): 0.561
relative viability ([1]; first compound 6.325 µM): 0.559
relative viability ([1]; first compound 20 µM): 0.337
relative viability ([2]; first compound 0.2 µM): 1.01
relative viability ([2]; first compound 0.6325 µM): 0.922
relative viability ([2]; first compound 2 µM): 1.08
relative viability ([2]; first compound 6.325 µM): 0.769
relative viability ([2]; first compound 20 µM): 0.477
relative viability ([3]; first compound 0.2 µM): 0.764
relative viability ([3]; first compound 0.6325 µM): 0.748
relative viability ([3]; first compound 2 µM): 0.742
relative viability ([3]; first compound 6.325 µM): 0.406
relative viability ([3]; first compound 20 µM): 0.292
relative viability ([4]; first compound 0.2 µM): 0.548
relative viability ([4]; first compound 0.6325 µM): 0.499
relative viability ([4]; first compound 2 µM): 0.39
relative viability ([4]; first compound 6.325 µM): 0.428
relative viability ([4]; first compound 20 µM): 0.228
relative viability ([5]; first compound 0.2 µM): 0.883
relative viability ([5]; first compound 0.6325 µM): 0.935
relative viability ([5]; first compound 2 µM): 0.93
relative viability ([5]; first compound 6.325 µM): 0.57
relative viability ([5]; first compound 20 µM): 0.159
relative viability ([6]; first compound 0.2 µM): 0.764
relative viability ([6]; first compound 0.6325 µM): 0.837
relative viability ([6]; first compound 2 µM): 0.957
relative viability ([6]; first compound 6.325 µM): 0.623
relative viability ([6]; first compound 20 µM): 0.393
relative viability ([7]; first compound 0.2 µM): 0.746
relative viability ([7]; first compound 0.6325 µM): 0.616
relative viability ([7]; first compound 2 µM): 0.478
relative viability ([7]; first compound 6.325 µM): 0.456
relative viability ([7]; first compound 20 µM): 0.118
relative viability ([8]; first compound 0.2 µM): 0.431
relative viability ([8]; first compound 0.6325 µM): 0.396
relative viability ([8]; first compound 2 µM): 0.337
relative viability ([8]; first compound 6.325 µM): 0.404
relative viability ([8]; first compound 20 µM): 0.206

Cc1cn(-c2cc(NC(=O)c3ccc(C)c(Nc4nccc(-c5cccnc5)n4)c3)cc(C(F)(F)F)c2)cn1 [Nilotinib] + NC(=O)Nc1cc(-c2cccc(F)c2)sc1C(=O)N[C@H]1CCCNC1 [AZD7762] (partner 0.2 µM)
relative viability ([1]; first compound 0.001 µM): 1.11
relative viability ([1]; first compound 0.003162 µM): 1.02
relative viability ([1]; first compound 0.01 µM): 1.11
relative viability ([1]; first compound 0.03162 µM): 1.13
relative viability ([1]; first compound 0.1 µM): 1.01
relative viability ([2]; first compound 0.001 µM): 0.78
relative viability ([2]; first compound 0.01 µM): 0.855
relative viability ([2]; first compound 0.03162 µM): 0.74
relative viability ([2]; first compound 0.1 µM): 0.724
relative viability ([9]; first compound 0.001 µM): 0.117
relative viability ([9]; first compound 0.003162 µM): 0.121
relative viability ([9]; first compound 0.01 µM): 0.11
relative viability ([9]; first compound 0.03162 µM): 0.121
relative viability ([9]; first compound 0.1 µM): 0.117
relative viability ([4]; first compound 0.001 µM): 0.436
relative viability ([4]; first compound 0.003162 µM): 0.75
relative viability ([4]; first compound 0.01 µM): 0.41
relative viability ([4]; first compound 0.03162 µM): 0.285
relative viability ([4]; first compound 0.1 µM): 0.299
relative viability ([7]; first compound 0.001 µM): 0.359
relative viability ([7]; first compound 0.003162 µM): 0.285
relative viability ([7]; first compound 0.01 µM): 0.399
relative viability ([7]; first compound 0.03162 µM): 0.305
relative viability ([8]; first compound 0.001 µM): 0.561
relative viability ([8]; first compound 0.003162 µM): 0.664
relative viability ([8]; first compound 0.01 µM): 0.663
relative viability ([8]; first compound 0.03162 µM): 0.569
relative viability ([8]; first compound 0.1 µM): 0.65

Cc1cn(-c2cc(NC(=O)c3ccc(C)c(Nc4nccc(-c5cccnc5)n4)c3)cc(C(F)(F)F)c2)cn1 [Nilotinib] + Nc1ncn([C@H]2C[C@H](O)[C@@H](CO)O2)c(=O)n1 [Decitabine] (partner 2 µM)
relative viability ([2]; first compound 0.001 µM): 0.698
relative viability ([2]; first compound 0.01 µM): 0.697
relative viability ([2]; first compound 0.03162 µM): 0.606
relative viability ([2]; first compound 0.1 µM): 0.613
relative viability ([3]; first compound 0.001 µM): 0.554
relative viability ([3]; first compound 0.003162 µM): 0.56
relative viability ([3]; first compound 0.01 µM): 0.644
relative viability ([3]; first compound 0.03162 µM): 0.469
relative viability ([3]; first compound 0.1 µM): 0.546
relative viability ([4]; first compound 0.001 µM): 0.445
relative viability ([4]; first compound 0.003162 µM): 0.505
relative viability ([4]; first compound 0.01 µM): 0.512
relative viability ([4]; first compound 0.03162 µM): 0.591
relative viability ([4]; first compound 0.1 µM): 0.537
relative viability ([10]; first compound 0.001 µM): 0.199
relative viability ([10]; first compound 0.01 µM): 0.386
relative viability ([10]; first compound 0.03162 µM): 0.198
relative viability ([10]; first compound 0.1 µM): 0.116
relative viability ([6]; first compound 0.001 µM): 0.532
relative viability ([6]; first compound 0.003162 µM): 0.627
relative viability ([6]; first compound 0.01 µM): 0.699
relative viability ([6]; first compound 0.03162 µM): 0.424
relative viability ([6]; first compound 0.1 µM): 0.532
relative viability ([7]; first compound 0.001 µM): 0.24
relative viability ([7]; first compound 0.003162 µM): 0.263
relative viability ([7]; first compound 0.01 µM): 0.27
relative viability ([7]; first compound 0.03162 µM): 0.304
relative viability ([7]; first compound 0.1 µM): 0.266
relative viability ([8]; first compound 0.001 µM): 0.588
relative viability ([8]; first compound 0.003162 µM): 0.496
relative viability ([8]; first compound 0.01 µM): 0.476
relative viability ([8]; first compound 0.03162 µM): 0.497
relative viability ([8]; first compound 0.1 µM): 0.469

Cc1cn(-c2cc(NC(=O)c3ccc(C)c(Nc4nccc(-c5cccnc5)n4)c3)cc(C(F)(F)F)c2)cn1 [Nilotinib] + O=C(CCCCCCC(=O)Nc1ccccc1)NO [Vorinostat] (partner 1 µM)
relative viability ([1]; first compound 0.001 µM): 0.518
relative viability ([1]; first compound 0.003162 µM): 0.455
relative viability ([1]; first compound 0.01 µM): 0.651
relative viability ([1]; first compound 0.03162 µM): 0.532
relative viability ([1]; first compound 0.1 µM): 0.498
relative viability ([2]; first compound 0.001 µM): 0.942
relative viability ([2]; first compound 0.003162 µM): 1.11
relative viability ([2]; first compound 0.01 µM): 1.17
relative viability ([2]; first compound 0.03162 µM): 1.11
relative viability ([2]; first compound 0.1 µM): 1.17
relative viability ([3]; first compound 0.001 µM): 0.792
relative viability ([3]; first compound 0.003162 µM): 0.889
relative viability ([3]; first compound 0.01 µM): 0.875
relative viability ([3]; first compound 0.03162 µM): 0.642
relative viability ([3]; first compound 0.1 µM): 0.615
relative viability ([4]; first compound 0.001 µM): 0.558
relative viability ([4]; first compound 0.003162 µM): 0.795
relative viability ([4]; first compound 0.01 µM): 0.671
relative viability ([4]; first compound 0.03162 µM): 0.481
relative viability ([4]; first compound 0.1 µM): 0.457
relative viability ([5]; first compound 0.001 µM): 0.526
relative viability ([5]; first compound 0.01 µM): 0.987
relative viability ([5]; first compound 0.03162 µM): 0.352
relative viability ([5]; first compound 0.1 µM): 0.841
relative viability ([6]; first compound 0.001 µM): 0.628
relative viability ([6]; first compound 0.003162 µM): 0.756
relative viability ([6]; first compound 0.01 µM): 0.865
relative viability ([6]; first compound 0.03162 µM): 0.632
relative viability ([6]; first compound 0.1 µM): 0.692
relative viability ([7]; first compound 0.001 µM): 0.594
relative viability ([7]; first compound 0.003162 µM): 0.378
relative viability ([7]; first compound 0.01 µM): 0.756
relative viability ([7]; first compound 0.03162 µM): 0.604
relative viability ([7]; first compound 0.1 µM): 0.156
relative viability ([8]; first compound 0.001 µM): 0.394
relative viability ([8]; first compound 0.003162 µM): 0.367
relative viability ([8]; first compound 0.01 µM): 0.372
relative viability ([8]; first compound 0.03162 µM): 0.172

CN1CCN(CCOc2cc(OC3CCOCC3)c3c(Nc4c(Cl)ccc5c4OCO5)ncnc3c2)CC1 [Saracatinib] + NC(=O)Nc1cc(-c2cccc(F)c2)sc1C(=O)N[C@H]1CCCNC1 [AZD7762] (partner 0.2 µM)
relative viability ([1]; first compound 0.02 µM): 1.12
relative viability ([1]; first compound 0.2 µM): 1.05
relative viability ([1]; first compound 0.6325 µM): 1.14
relative viability ([1]; first compound 2 µM): 0.852
relative viability ([2]; first compound 0.02 µM): 0.956
relative viability ([2]; first compound 0.2 µM): 0.821
relative viability ([2]; first compound 0.6325 µM): 1.07
relative viability ([2]; first compound 2 µM): 0.847
relative viability ([9]; first compound 0.02 µM): 0.136
relative viability ([9]; first compound 0.6325 µM): 0.129
relative viability ([9]; first compound 2 µM): 0.114
relative viability ([4]; first compound 0.02 µM): 0.476
relative viability ([4]; first compound 0.2 µM): 0.413
relative viability ([4]; first compound 0.6325 µM): 0.528
relative viability ([4]; first compound 2 µM): 0.404
relative viability ([7]; first compound 0.02 µM): 0.381
relative viability ([7]; first compound 0.2 µM): 0.286
relative viability ([7]; first compound 0.6325 µM): 0.246
relative viability ([7]; first compound 2 µM): 0.203
relative viability ([8]; first compound 0.02 µM): 0.79
relative viability ([8]; first compound 0.2 µM): 0.633
relative viability ([8]; first compound 0.6325 µM): 0.865
relative viability ([8]; first compound 2 µM): 0.379

CN1CCN(CCOc2cc(OC3CCOCC3)c3c(Nc4c(Cl)ccc5c4OCO5)ncnc3c2)CC1 [Saracatinib] + Nc1ncn([C@H]2C[C@H](O)[C@@H](CO)O2)c(=O)n1 [Decitabine] (partner 2 µM)
relative viability ([1]; first compound 0.02 µM): 0.912
relative viability ([1]; first compound 0.2 µM): 0.793
relative viability ([1]; first compound 0.6325 µM): 0.951
relative viability ([1]; first compound 2 µM): 0.821
relative viability ([2]; first compound 0.02 µM): 0.797
relative viability ([2]; first compound 0.2 µM): 0.671
relative viability ([2]; first compound 0.6325 µM): 0.846
relative viability ([2]; first compound 2 µM): 0.756
relative viability ([3]; first compound 0.02 µM): 0.563
relative viability ([3]; first compound 0.2 µM): 0.434
relative viability ([3]; first compound 0.6325 µM): 0.534
relative viability ([3]; first compound 2 µM): 0.403
relative viability ([4]; first compound 0.02 µM): 0.423
relative viability ([4]; first compound 0.2 µM): 0.356
relative viability ([4]; first compound 0.6325 µM): 0.434
relative viability ([4]; first compound 2 µM): 0.371
relative viability ([10]; first compound 0.02 µM): 0.266
relative viability ([10]; first compound 0.6325 µM): 0.279
relative viability ([10]; first compound 2 µM): 0.237
relative viability ([6]; first compound 0.02 µM): 0.546
relative viability ([6]; first compound 0.2 µM): 0.526
relative viability ([6]; first compound 0.6325 µM): 0.594
relative viability ([6]; first compound 2 µM): 0.405
relative viability ([7]; first compound 0.02 µM): 0.219
relative viability ([7]; first compound 0.2 µM): 0.182
relative viability ([7]; first compound 0.6325 µM): 0.158
relative viability ([7]; first compound 2 µM): 0.118
relative viability ([8]; first compound 0.02 µM): 0.534
relative viability ([8]; first compound 0.2 µM): 0.367
relative viability ([8]; first compound 0.6325 µM): 0.647
relative viability ([8]; first compound 2 µM): 0.391

From the supplement of paper PMC10307832
